Tested on: San Carlos virus
Assay: Dimethylphenols against San Carlos virus in tissue culture (human embryonic lung), CPE
Type: cell-based, San Carlos virus (adenovirus)
Conditions: for CPE with TCID50 doses of San Carlos virus: human embryonic lung, 100 TCID50; for anti-viral activity against San Carlos virus: at various concentrations

Structure (SMILES) | CPE with TCID50 doses of San Carlos virus (10^-6 grams 2X) | CPE with TCID50 doses of San Carlos virus (10^-7 grams 2X) | CPE with TCID50 doses of San Carlos virus (10^-8 grams 2X) | CPE with TCID50 doses of San Carlos virus (10^-9 grams 2X) | CPE with TCID50 doses of San Carlos virus (10^-10 grams 2X) | CPE with TCID50 doses of San Carlos virus (10^-11 grams 2X) | CPE with TCID50 doses of San Carlos virus (10^-12 grams 2X) | CPE with TCID50 doses of San Carlos virus (10^-13 grams 2X) | CPE with TCID50 doses of San Carlos virus (10^-14 grams 2X) | CPE with TCID50 doses of San Carlos virus (10^-15 grams 2X) | anti-viral activity against San Carlos virus
Cc1cccc(O)c1C [2,3-dimethylphenol] | 3+ (75% of cells infected with selected virus) | 2+ (50% of cells infected with selected virus) | 2+ (50% of cells infected with selected virus) | 1+ (25% of cells infected with selected virus) | 1+ (25% of cells infected with selected virus) | 1+ (25% of cells infected with selected virus) | 2+ (50% of cells infected with selected virus) | 1+ (25% of cells infected with selected virus) | 2+ (50% of cells infected with selected virus) | 2+ (50% of cells infected with selected virus) | exhibit anti-viral activity
Cc1ccc(C)c(O)c1 [2,5-dimethylphenol] | 3+ (75% of cells infected with selected virus) | 2+ (50% of cells infected with selected virus) | 1+ (25% of cells infected with selected virus) | ± (less than 10% infected) | 1+ (25% of cells infected with selected virus) | 1+ (25% of cells infected with selected virus) | ± (less than 10% infected) | ± (less than 10% infected) | ± (less than 10% infected) | 2+ (50% of cells infected with selected virus) | exhibit anti-viral activity
Cc1cccc(C)c1O [2,6-dimethylphenol] | 2+ (50% of cells infected with selected virus) | 2+ (50% of cells infected with selected virus) | 1+ (25% of cells infected with selected virus) | 2+ (50% of cells infected with selected virus) | 1+ (25% of cells infected with selected virus) | 3+ (75% of cells infected with selected virus) | 2+ (50% of cells infected with selected virus) | 2+ (50% of cells infected with selected virus) | 1+ (25% of cells infected with selected virus) | 1+ (25% of cells infected with selected virus) | exhibit anti-viral activity
Cc1ccc(O)cc1C [3,4-dimethylphenol, reference compound] | 2+ (50% of cells infected with selected virus) | 1+ (25% of cells infected with selected virus) | 1+ (25% of cells infected with selected virus) | 1+ (25% of cells infected with selected virus) | 2+ (50% of cells infected with selected virus) | 2+ (50% of cells infected with selected virus) | 1+ (25% of cells infected with selected virus) | 2+ (50% of cells infected with selected virus) | 2+ (50% of cells infected with selected virus) | 1+ (25% of cells infected with selected virus) | 
